Source: ChEMBL document CHEMBL1201862, “PubChem BioAssay data set” (2004)
The source made the active and inactive calls. For most assays here, no stated cut-off is given here; in the data, actives have a measured EC50 and inactives only a lower limit.

Experiments:
[1] = fluconazole-exposed Candida albicans growth modulators – fluorescence, retest, confirmation (AID 2467); type: functional, cell-based
[2] = NIH-3T3 fibroblast cytotoxicity, dose response, cytotoxicity control, cell-based, fluorescence, Alamar Blue, secondary assay (AID 2327); type: functional;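 further: NIH-3T3 mouse fibroblasts cultured with fluconazole at 8 µg/mL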
[3] = molecular target: T1, High affinity choline transporter 1 (Homo sapiens, UniProt Q9GZV3); assay: human choline transporter blockers, potency – cell-based, 5-point CRC, membrane potential dye, dose response (AID 504840); type: functional
T1 sequence (Q9GZV3 whole entry): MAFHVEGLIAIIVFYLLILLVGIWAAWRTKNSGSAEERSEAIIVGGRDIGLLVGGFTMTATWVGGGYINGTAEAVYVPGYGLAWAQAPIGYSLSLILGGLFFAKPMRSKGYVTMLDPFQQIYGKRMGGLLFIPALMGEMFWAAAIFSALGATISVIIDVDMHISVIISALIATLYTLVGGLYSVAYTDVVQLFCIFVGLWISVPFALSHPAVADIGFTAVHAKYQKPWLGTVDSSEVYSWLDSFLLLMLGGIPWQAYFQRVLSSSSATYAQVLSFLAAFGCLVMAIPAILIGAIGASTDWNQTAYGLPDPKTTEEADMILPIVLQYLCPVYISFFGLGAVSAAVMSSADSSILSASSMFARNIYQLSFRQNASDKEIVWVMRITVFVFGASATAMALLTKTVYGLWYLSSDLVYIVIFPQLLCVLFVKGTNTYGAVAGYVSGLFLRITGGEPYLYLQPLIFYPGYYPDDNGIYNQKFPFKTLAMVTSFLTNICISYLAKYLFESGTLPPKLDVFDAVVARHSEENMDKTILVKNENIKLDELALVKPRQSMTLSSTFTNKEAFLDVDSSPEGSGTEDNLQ

[4] = molecular target: FAD-linked sulfhydryl oxidase ALR (Homo sapiens, UniProt P55789); assay: ALR-catalysed DTT oxidation blockers – biochemical, H2O2 detection, luminescence, cherry-pick, dose response (AID 493248)
[5] = NIH3T3 cell viability loss – ATP luminescence, mouse fibroblasts, counter-screen, dose response (AID 2010); type: functional, cell-based;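 further: cells exposed to compound for about 90 hours before reading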
[6] = Trypanosoma cruzi growth suppression in host cells – NIH3T3 host cells, beta-gal luminescence, confirmation (AID 2044); type: functional, cell-based;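 further: intracellular parasites grown in NIH/3T3 mouse fibroblasts as host cells; luminescent beta-galactosidase reporter signal from transgenic T. cruzi replicating inside host cells; inhibitors lower the luminescence signal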
[7] = molecular target: T2, Heat shock factor protein 1 (Mus musculus, UniProt P38532); assay: enhancement of HSF1-driven luciferase signal – cell-based, NIH3T3, luminescence, dose retest, confirmation (AID 435004); type: functional;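 further: stress induced by proteasome inhibitor MG132 added 30 min after compound; luciferase reporter driven by HSF1 response element in NIH3T3 cells; actives raise luminescence as potentiators of the MG132 stress response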
T2 sequence (P38532 whole entry): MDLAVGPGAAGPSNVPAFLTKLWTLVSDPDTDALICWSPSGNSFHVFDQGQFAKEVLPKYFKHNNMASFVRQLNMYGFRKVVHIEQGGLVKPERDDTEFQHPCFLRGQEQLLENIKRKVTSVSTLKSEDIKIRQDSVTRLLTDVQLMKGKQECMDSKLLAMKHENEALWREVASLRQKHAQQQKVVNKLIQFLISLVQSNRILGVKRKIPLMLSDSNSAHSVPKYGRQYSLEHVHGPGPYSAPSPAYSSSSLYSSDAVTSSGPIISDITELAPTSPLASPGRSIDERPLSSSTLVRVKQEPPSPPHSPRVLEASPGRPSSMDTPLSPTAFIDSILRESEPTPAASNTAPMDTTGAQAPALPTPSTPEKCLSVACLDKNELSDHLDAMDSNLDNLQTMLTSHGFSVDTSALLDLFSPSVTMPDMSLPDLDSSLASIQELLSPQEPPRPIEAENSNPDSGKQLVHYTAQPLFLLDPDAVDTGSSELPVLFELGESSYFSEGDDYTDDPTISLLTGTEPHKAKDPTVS

Cytochrome P450 2D6 = Cytochrome P450 2D6 (Homo sapiens, UniProt P10635);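 further: CYP2D6 member of a cytochrome P450 panel assay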
[8] = Luminescence Cell-Based Dose Confirmation HTS to Identify Inhibitors of Platelet Dense Granule Release. [Related pubchem assays: 1663 (Primary HTS), 1678 (Summary of Project)]; type: functional
[9] = alpha-synuclein stem-loop luciferase translation blockers – H4 neuroglioma cells, luminescence, confirmation (AID 1988); type: functional, cell-based
[10] = molecular target: Luciferin 4-monooxygenase (Photinus pyralis, UniProt P08659); assay: inhibition of purified Photinus pyralis luciferase – biochemical, luminescence, dose response (AID 1891)
[11] = luciferase reporter signal suppression in cells – H4 neuroglioma cells, luminescence, dose response (AID 1990); type: functional, cell-based
[12] = Luminescence Cell-Based Dose Response HTS to Identify Inhibitors of 5'UTR Stem-Loop Driven Prion Protein mRNA Translation in H4 Neuroglioblastoma Cells. [Related pubchem assays: 1827 (Project Summary), 1813 (Primary HTS)]; type: functional
[13] = molecular target: T3, Ubiquitin-conjugating enzyme E2 N (Homo sapiens, UniProt P61088); type: functional;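 further: Dose-response confirmation in a TR-FRET assay detecting UBC13-driven polyubiquitin chain formation, inhibition measured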
T3 sequence (P61088 whole entry): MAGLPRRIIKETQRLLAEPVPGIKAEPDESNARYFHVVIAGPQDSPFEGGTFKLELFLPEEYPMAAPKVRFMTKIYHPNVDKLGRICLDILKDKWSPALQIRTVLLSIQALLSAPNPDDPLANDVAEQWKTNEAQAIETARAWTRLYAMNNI

Sequence of FAD-linked sulfhydryl oxidase ALR (P55789 whole entry): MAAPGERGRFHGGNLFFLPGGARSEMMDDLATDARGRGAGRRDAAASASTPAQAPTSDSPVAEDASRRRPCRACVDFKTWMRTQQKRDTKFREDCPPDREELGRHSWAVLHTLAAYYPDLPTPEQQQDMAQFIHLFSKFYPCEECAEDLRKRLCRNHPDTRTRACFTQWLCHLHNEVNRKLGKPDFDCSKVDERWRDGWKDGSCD
Sequence of Luciferin 4-monooxygenase (P08659 whole entry): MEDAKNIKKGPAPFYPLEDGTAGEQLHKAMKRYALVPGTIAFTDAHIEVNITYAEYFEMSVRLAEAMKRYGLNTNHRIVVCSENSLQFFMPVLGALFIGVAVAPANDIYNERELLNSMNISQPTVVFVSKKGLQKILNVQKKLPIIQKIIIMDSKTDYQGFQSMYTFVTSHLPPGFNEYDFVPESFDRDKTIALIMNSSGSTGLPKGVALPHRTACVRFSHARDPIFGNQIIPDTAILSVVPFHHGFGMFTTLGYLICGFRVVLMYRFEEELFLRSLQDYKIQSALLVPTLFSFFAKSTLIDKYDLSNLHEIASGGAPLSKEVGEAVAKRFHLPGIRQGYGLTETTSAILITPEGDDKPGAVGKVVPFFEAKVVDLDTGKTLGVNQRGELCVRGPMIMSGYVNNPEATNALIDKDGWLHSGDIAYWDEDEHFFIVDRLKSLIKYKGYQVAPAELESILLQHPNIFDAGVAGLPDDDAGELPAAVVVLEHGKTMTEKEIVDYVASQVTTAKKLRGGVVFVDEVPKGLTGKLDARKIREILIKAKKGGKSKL
Sequence of Cytochrome P450 2D6 (P10635 whole entry): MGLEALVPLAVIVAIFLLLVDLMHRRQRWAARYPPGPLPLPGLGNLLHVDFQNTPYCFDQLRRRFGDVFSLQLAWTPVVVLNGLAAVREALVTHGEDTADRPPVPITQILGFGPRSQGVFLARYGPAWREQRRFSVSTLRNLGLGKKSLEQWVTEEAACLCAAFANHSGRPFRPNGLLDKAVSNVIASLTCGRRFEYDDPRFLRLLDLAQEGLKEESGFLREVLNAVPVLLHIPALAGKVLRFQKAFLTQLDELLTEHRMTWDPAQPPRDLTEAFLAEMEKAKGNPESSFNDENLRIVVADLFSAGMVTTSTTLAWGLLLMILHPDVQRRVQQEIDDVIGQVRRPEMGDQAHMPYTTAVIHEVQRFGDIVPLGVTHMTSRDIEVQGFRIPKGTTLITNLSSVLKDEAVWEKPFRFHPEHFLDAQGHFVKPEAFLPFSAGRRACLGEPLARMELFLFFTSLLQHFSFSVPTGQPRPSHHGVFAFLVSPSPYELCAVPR

O=C(Nc1nc2ccc(S(=O)(=O)N3CCCCC3)cc2s1)c1ccncc1
EC50 [1]: 1.95 µM (active)
EC50 [2]: 130 µM (active)

O=C(NC1CCCCCCC1)c1ccc(S(=O)(=O)N2CCCC2)cc1
IC50 [3]: 14.5 µM (active)

OCc1ccccc1OCCOc1ccc(Cl)c2cccnc12
IC50 [3]: 11.5 µM (active)

CCn1c(=O)c(=O)[nH]c2cc(C(=O)NC(C)c3ccc(S(N)(=O)=O)cc3)ccc21 (stereo not drawn)
AC50 [4]: 0.407 µM (active)

Cc1ccc(C(=O)C[n+]2cccc3ccccc32)cc1
IC50 [3]: 13.8 µM (active)
EC50 [5]: > 60 µM (not active)
EC50 [6]: 32.4 µM (active)

Nc1ccc(Sc2cnn(-c3ccccc3)c(=O)c2Cl)cc1
EC50 [7]: > 260 µM (inactive)
AC50 (Cytochrome P450 2D6): 12.6 µM (inconclusive)

CC(C)c1ccc(NC2CCCN(C(=O)c3cnsn3)C2)cc1 (stereo not drawn)
AC50 [4]: 4.8 µM (active)

COc1ccc(Nc2cc3n(c(=O)n2)CCc2cc(OC)c(OC)cc2-3)c(C)c1
EC50 [8]: 0.987 µM (active)
EC50 [9]: 35.6 µM (active)
EC50 [10]: > 112 µM (not active)
EC50 [11]: 17.3 µM (active)
EC50 [12]: 41.3 µM (active)

CN(c1ccccc1)c1nc(N)c([N+](=O)[O-])c(N2CCCCCC2)n1
EC50 [7]: 27.7 µM (active)

COc1cc2sc(-c3ccc(S(C)(=O)=O)cc3)c(C(=O)NCCCCO)c2cc1OC
IC50 [13]: > 20 µM (inactive)

O=C(CC(CC(=O)c1ccc(Cl)cc1)c1ccccc1C(=O)O)c1ccc(Cl)cc1
IC50 [3]: 13.8 µM (active)

CCn1cc(C(=O)N2CCCCC2)c(=O)c2cc(S(=O)(=O)N3CCC(C)CC3)ccc21
IC50 [3]: 16.2 µM (active)

CCOC(=O)c1ccccc1N/C=C/C(=O)c1cccs1
IC50 [3]: 13.2 µM (active)

CCOc1cc(/C=N/NC(=O)CN2CCCCC2)ccc1OCc1cccc(Cl)c1
IC50 [3]: 14.5 µM (active)

O=C(N/N=C/c1ccncc1)c1cccc(N/N=C/c2ccncc2)c1
AC50 [4]: 6.02 µM (active)

CCOc1ccccc1Nc1cc2n(c(=O)n1)CCc1cc(OC)c(OC)cc1-2
EC50 [8]: 1.23 µM (active)
EC50 [9]: 9.81 µM (active)
EC50 [10]: > 112 µM (not active)
EC50 [11]: 47.8 µM (active)
EC50 [12]: 30.7 µM (active)
